Two compounds from paper doi:10.1101/390401v1, “Flux balance analysis predicts NADP phosphatase and NADH kinase are critical to balancing redox during xylose fermentation in Scheffersomyces stipitis” (biorxiv, 2018) can be followed below.

Molecules are shown by their SMILES.

The target of this test is T1, K. phaffii Adh2p (Komagataella pastoris, UniProt A0A1B2JBQ8).
T1 construct: gene ADH2; purified natively from wild-type K. phaffii; 40 kDa band
T1 sequence (A0A1B2JBQ8 1-350): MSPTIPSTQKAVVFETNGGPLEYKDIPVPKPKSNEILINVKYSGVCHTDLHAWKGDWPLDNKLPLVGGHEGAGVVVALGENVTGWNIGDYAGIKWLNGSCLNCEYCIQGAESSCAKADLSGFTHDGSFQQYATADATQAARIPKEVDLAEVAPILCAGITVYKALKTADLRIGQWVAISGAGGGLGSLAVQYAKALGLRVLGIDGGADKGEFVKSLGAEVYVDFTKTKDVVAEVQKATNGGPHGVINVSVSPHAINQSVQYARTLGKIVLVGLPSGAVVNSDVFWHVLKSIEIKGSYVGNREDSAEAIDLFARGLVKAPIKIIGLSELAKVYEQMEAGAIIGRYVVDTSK
The test is described as follows: NADH and NADPH oxidation at […] nm. The format is biochemical. To be noted: 0.01-10 mM butyraldehyde, NADH or NADPH, 1 mM ZnCl2, 50 mM HEPES pH 7.5, 30 C.

With `NC(=O)C1=CN([C@@H]2O[C@H](COP(=O)(O)OP(=O)(O)OC[C@H]3O[C@@H](n4cnc5c(N)ncnc54)[C@H](O)[C@@H]3O)[C@@H](O)[C@H]2O)C=CC1` [NADH], the “NADH and NADPH oxidation at 340 nm” value is “Both NADH and NADPH reduced butyraldehyde”.

As for `CCCC=O` [butyraldehyde], the “NADH and NADPH oxidation at 340 nm” value was “Both NADH and NADPH reduced butyraldehyde”.
